The results in this text go back to ChEMBL document CHEMBL1909046, “DrugMatrix in vitro pharmacology data”.

The term IC50 denotes the concentration at which inhibition is half-maximal. As a reminder, the Ki is a measure of affinity in units of concentration, obtained from inhibition or displacement.

The target in assay [1] is Aldo-keto reductase family 1 member B1 (Rattus norvegicus, UniProt P07943). The assay is classed as tissue-based, Lens of camera-type eye.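 Further: inhibition of aldose reductase enzyme activity, measured with DL-glyceraldehyde as the substrate; in other assays of this panel Not Active means under 50% inhibition at 10 µM.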
Assay [2] can be described thus: DRUGMATRIX: ATPase, Na+/K+ enzyme inhibition (substrate: ATP). It counts as tissue-based, Sus scrofa, Heart. The note with it: Not Active = under 50% inhibition at 10 µM.
The target in the next assay is T1, Substance-K receptor (Homo sapiens, UniProt P21452). Further: in other assays of this panel Not Active means under 50% inhibition at 10 µM.
T1 sequence (P21452 whole entry): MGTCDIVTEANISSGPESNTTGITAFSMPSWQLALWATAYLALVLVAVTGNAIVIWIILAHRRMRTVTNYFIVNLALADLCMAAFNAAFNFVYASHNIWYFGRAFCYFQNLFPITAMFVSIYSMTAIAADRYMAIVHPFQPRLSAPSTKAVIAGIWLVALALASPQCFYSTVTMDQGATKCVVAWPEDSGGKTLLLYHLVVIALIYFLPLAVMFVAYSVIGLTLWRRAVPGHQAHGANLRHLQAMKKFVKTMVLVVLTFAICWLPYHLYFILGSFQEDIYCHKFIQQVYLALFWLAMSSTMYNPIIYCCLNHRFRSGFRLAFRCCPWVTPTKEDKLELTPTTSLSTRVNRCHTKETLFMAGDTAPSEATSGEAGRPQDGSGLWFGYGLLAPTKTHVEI
The assay is classed as cell membranes, CHO, Membrane.

Assay [3] in a line: DRUGMATRIX: Tumor Necrosis Factor (TNF), Non-Selective radioligand binding (ligand: [125I] TNF-alpha). It counts as cell membranes, Membrane. The conditions noted are these: u-937; Not Active = under 50% inhibition at 10 µM.
The target in assay [4] is T2, Vasoactive intestinal polypeptide receptor 1 (Homo sapiens, UniProt P32241). Further: in other assays of this panel Not Active means under 50% inhibition at 10 µM.
T2 sequence (P32241 whole entry): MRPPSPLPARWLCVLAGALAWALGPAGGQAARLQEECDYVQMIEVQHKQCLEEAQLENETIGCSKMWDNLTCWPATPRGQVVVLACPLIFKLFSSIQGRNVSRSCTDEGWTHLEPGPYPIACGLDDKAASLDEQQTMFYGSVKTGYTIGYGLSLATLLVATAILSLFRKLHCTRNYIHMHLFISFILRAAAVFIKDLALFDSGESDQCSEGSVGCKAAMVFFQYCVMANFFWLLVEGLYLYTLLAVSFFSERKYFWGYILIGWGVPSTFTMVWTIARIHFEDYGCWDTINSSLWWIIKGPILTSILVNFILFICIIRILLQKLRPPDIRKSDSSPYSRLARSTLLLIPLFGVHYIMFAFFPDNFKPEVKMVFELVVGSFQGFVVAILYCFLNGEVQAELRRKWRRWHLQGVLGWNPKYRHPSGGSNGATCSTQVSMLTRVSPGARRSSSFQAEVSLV
The assay is classed as cell membranes, Membrane. The conditions noted are these: ht-29.

A further assay has as its target Cannabinoid receptor 1 (Homo sapiens, UniProt P21554). The assay is classed as cell membranes, Membrane. The note with it: chem-1. Further: in other assays of this panel Not Active means under 50% inhibition at 10 µM.
Assay [5] can be described thus: DRUGMATRIX: GABAA, Muscimol, Central radioligand binding (ligand: [3H] Muscimol). The assay is classed as cell membranes, Rattus norvegicus, Wistar, Brain, Membrane. The note with it: Not Active = under 50% inhibition at 10 µM.
Assay [6] is described as follows: DRUGMATRIX: Glutamate, Kainate radioligand binding (ligand: [3H] Kainic acid). The assay is classed as cell membranes, Rattus norvegicus, Wistar, Brain, Membrane. The note with it: Not Active = under 50% inhibition at 10 µM.
The target in the next assay is Melanocortin receptor 4 (Homo sapiens, UniProt P32245). The assay is classed as cell membranes, Membrane. The note with it: hek293. Further: in other assays of this panel Not Active means under 50% inhibition at 10 µM.
In another assay the target is Melanocortin receptor 5 (Homo sapiens, UniProt P33032). It counts as cell membranes, HEK293, Membrane. The conditions noted are these: hek293. Further: in other assays of this panel Not Active means under 50% inhibition at 10 µM.
Assay [7] has as its target T3, Muscarinic acetylcholine receptor M2 (Homo sapiens, UniProt P08172). Further: in other assays of this panel Not Active means under 50% inhibition at 10 µM.
T3 sequence (P08172 whole entry): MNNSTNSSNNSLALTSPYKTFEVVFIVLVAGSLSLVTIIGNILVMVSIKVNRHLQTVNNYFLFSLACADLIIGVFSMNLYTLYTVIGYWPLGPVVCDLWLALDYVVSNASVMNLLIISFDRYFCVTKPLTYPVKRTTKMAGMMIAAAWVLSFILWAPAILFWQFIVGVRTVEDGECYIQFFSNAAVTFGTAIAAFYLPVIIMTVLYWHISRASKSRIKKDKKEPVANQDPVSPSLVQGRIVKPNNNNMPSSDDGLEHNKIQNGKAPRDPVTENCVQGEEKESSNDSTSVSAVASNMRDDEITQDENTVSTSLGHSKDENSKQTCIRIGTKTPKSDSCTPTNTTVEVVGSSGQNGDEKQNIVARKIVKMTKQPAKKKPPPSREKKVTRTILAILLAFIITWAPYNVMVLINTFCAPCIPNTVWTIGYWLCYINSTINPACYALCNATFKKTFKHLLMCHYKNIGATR
It counts as cell membranes, CHO-K1, Membrane. The conditions noted are these: cho-k1.

For assay [8], the target named is T4, Neuropeptide Y receptor type 2 (Homo sapiens, UniProt P49146). Further: in other assays of this panel Not Active means under 50% inhibition at 10 µM.
T4 sequence (P49146 whole entry): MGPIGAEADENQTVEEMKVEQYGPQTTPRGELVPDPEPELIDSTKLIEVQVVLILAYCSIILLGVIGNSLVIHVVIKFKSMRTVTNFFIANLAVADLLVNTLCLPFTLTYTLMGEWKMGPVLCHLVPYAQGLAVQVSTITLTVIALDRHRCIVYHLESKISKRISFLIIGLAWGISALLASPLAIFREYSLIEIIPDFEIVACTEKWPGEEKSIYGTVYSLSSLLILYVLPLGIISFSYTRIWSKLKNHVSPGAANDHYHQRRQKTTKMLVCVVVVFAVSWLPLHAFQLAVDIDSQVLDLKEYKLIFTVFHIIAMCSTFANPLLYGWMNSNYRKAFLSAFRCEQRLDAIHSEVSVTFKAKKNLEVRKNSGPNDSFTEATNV
It counts as cell membranes, Membrane. The note with it: kan-ts.

Assay [9] can be described thus: DRUGMATRIX: Phorbol Ester radioligand binding (ligand: [3H] PDBu). It counts as cell membranes, Mus musculus, ICR, Brain, Membrane. The conditions noted are these: Not Active = under 50% inhibition at 10 µM.
Assay [10] is described as follows: DRUGMATRIX: Potassium Channel [KATP] radioligand binding (ligand: [3H] Glyburide). The note with it: hit-t15; Not Active = under 50% inhibition at 10 µM. The assay is classed as cell membranes, Membrane.
In assay [11] the target is Protein kinase C alpha type (Homo sapiens, UniProt P17252). The assay is classed as cell-based. The conditions noted are these: sf9.
For assay [12], the target named is Protein phosphatase 3 catalytic subunit alpha (Homo sapiens, UniProt Q08209). On the set-up: species or system Escherichia coli.
Assay [13] has as its target 5-hydroxytryptamine receptor 1B (Rattus norvegicus, UniProt P28564). It counts as cell membranes, Wistar, Cerebral cortex, Membrane. Further: in other assays of this panel Not Active means under 50% inhibition at 10 µM.

Cannabinoid receptor 1, sequence (P21554 whole entry): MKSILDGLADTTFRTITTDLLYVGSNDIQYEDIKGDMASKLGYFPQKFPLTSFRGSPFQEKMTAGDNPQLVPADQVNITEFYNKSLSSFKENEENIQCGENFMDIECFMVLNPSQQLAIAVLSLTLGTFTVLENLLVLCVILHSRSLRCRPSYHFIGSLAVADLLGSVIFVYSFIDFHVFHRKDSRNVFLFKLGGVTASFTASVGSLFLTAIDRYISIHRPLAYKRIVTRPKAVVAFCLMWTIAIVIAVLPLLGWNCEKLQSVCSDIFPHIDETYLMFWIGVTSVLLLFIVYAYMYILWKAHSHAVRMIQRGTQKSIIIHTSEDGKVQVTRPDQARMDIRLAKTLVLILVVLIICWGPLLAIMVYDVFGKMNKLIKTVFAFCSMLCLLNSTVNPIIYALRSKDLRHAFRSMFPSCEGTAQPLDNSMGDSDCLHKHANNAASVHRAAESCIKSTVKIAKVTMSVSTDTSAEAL
Melanocortin receptor 4, sequence (P32245 whole entry): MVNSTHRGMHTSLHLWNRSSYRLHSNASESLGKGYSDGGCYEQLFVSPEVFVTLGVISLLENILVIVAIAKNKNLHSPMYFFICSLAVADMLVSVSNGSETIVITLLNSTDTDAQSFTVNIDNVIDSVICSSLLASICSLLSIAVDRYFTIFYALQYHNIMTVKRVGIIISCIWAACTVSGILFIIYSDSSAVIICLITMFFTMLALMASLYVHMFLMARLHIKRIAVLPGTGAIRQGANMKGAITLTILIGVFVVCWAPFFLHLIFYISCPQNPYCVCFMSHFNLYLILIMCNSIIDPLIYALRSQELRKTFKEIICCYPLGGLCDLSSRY
Melanocortin receptor 5, sequence (P33032 whole entry): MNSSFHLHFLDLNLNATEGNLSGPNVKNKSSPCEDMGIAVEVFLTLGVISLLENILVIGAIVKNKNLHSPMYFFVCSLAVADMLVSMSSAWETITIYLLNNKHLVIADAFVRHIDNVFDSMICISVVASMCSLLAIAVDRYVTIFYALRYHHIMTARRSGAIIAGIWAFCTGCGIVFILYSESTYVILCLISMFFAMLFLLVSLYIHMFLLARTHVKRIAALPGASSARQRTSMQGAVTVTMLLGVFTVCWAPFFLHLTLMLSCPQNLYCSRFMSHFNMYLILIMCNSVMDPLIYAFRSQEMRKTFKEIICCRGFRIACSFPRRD
5-hydroxytryptamine receptor 1B, sequence (P28564 whole entry): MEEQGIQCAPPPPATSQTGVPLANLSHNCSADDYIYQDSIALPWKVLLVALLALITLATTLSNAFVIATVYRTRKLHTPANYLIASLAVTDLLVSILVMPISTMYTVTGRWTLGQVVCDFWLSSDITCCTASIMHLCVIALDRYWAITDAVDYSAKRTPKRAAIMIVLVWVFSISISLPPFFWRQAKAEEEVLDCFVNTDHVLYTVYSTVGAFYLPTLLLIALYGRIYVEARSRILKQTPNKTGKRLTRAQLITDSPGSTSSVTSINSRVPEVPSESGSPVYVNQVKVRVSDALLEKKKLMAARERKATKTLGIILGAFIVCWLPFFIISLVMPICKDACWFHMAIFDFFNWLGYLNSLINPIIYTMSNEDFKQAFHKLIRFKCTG

For the molecule `CCOC(=O)[C@H](CCc1ccccc1)N[C@@H](C)C(=O)N1[C@H](C(=O)O)C[C@@H]2CCC[C@@H]21`, the IC50 entry (in assay [1]; in [2]; against Substance-K receptor (cho); in assay [3]; in assay [4]; against Cannabinoid receptor 1) was “Not Active” in each case. In addition, the IC50 result (in [5]; in [6]; at Melanocortin receptor 4; on Melanocortin receptor 5; in assay [7]; in assay [8]) was “Not Active” in each case. The IC50 entry in [9], in assay [10], in assay [11], in assay [12] and in [13] was “Not Active” each time. The Ki entry in assay [2], in [3], in assay [5], in assay [6], in assay [9] and in assay [10] was “Not Active” in each case.
For `CC(C)(C)NC(=O)[C@@H]1CN(Cc2cccnc2)CCN1C[C@@H](O)C[C@@H](Cc1ccccc1)C(=O)N[C@H]1c2ccccc2C[C@H]1O.O`, the IC50 result in [1] is “Not Active”; in assay [2], “Not Active”; on Substance-K receptor (read-out: IC50), 5.1 µM; in assay [3] it was “Not Active”; in assay [4] it was “Not Active”; against Cannabinoid receptor 1 it was “Not Active”. The IC50 entry (in [5]; in [6]; against Melanocortin receptor 4; against Melanocortin receptor 5; in assay [7]; in assay [8]) was “Not Active” each time. Also, the IC50 result in [9], in assay [10], in assay [11], in assay [12] and in assay [13] was “Not Active” throughout. In addition, the Ki result in assay [2] is “Not Active”; on Substance-K receptor (read-out: Ki), 1.7 µM; in [3] it was “Not Active”; in assay [5], “Not Active”; in assay [6] it was “Not Active”; in assay [9], “Not Active”. In addition, the inhibition constant Ki entry in [10] was “Not Active”.
As to `CC1(C)[C@H]2CC[C@]1(C)C(=O)C2` [(-)-CAMPHOR], the IC50 result (in [1]; in assay [2]; on Substance-K receptor (cho); in assay [3]; in [4]; against Cannabinoid receptor 1) was “Not Active” each time. Also, the IC50 result (in [5]; in [6]; on Melanocortin receptor 4; at Melanocortin receptor 5; in assay [7]; in [8]) was “Not Active” in each case. Besides, the IC50 entry in assay [9], in assay [10], in assay [11], in assay [12] and in [13] was “Not Active” throughout. The Ki result in assay [2], in [3], in assay [5], in [6], in assay [9] and in [10] was “Not Active” throughout.
For the molecule `CC(C)(C)NCC(O)c1ccc(O)c(CO)c1` (centres undefined) [ALBUTEROL], the IC50 result (in assay [1]; in [2]; against Substance-K receptor (cho); in assay [3]; in [4]; at Cannabinoid receptor 1) was “Not Active” in each case. Moreover, the IC50 entry (in assay [5]; in assay [6]; on Melanocortin receptor 4; against Melanocortin receptor 5; in assay [7]; in [8]) was “Not Active” each time. Moreover, the IC50 result in [9], in assay [10], in [11], in [12] and in assay [13] was “Not Active” in each case. Moreover, the Ki result in [2], in assay [3], in [5], in assay [6], in assay [9] and in assay [10] was “Not Active” each time.
Take `NCCCC[C@H](N[C@@H](CCc1ccccc1)C(=O)O)C(=O)N1CCC[C@H]1C(=O)O` [LISINOPRIL ANHYDROUS]: the IC50 result (in [1]; in assay [2]; at Substance-K receptor (cho); in assay [3]; in assay [4]; against Cannabinoid receptor 1) was “Not Active” in each case. The IC50 result (in [5]; in assay [6]; against Melanocortin receptor 4; on Melanocortin receptor 5; in [7]; in [8]) was “Not Active” throughout. Moreover, the IC50 entry in assay [9], in [11], in assay [12] and in [13] was “Not Active” in each case. Moreover, the Ki entry in assay [2], in [3], in assay [5], in [6] and in assay [9] was “Not Active” throughout.
